Among the test systems are ACHN renal; CAKI-1 renal; EKVX NSCLC; MDA-MB-231 breast; NCI-H23 lung; OVCAR-5 ovarian; PC-3 prostate; RPMI-8226 leukemia; SW-620 colon; UACC-257 melanoma.
Holding throughout (assay): NCI tumour cell line growth inhibition, 48 h

Structures are written as SMILES. Values joined by “and” are separate entries in the source; they are usually repeats but may differ in a detail not shown here. Equal values may be shown once.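 Following 48 hours of exposure in 96-well plates, responses at five concentrations were used to interpolate endpoints linearly. GI50 is the concentration that inhibits growth by half. At the TGI there is no net growth.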

As to `COc1ccc(Cl)cc1Nc1nc(C(F)(F)F)ccc1C(=O)N/N=C/c1ccccc1Cl`, the GI50 is 2.01 µM in the test on ACHN renal; 0.994 µM in the test with CAKI-1 renal; 2.04 µM in the test on EKVX NSCLC; 2.09 µM in the test with MDA-MB-231 breast; 2.99 µM with NCI-H23 lung; 3.55 µM in the test with OVCAR-5 ovarian. Besides, the GI50 in the test with PC-3 prostate is 2.84 µM; with RPMI-8226 leukemia, 2.17 µM; in the test on SW-620 colon, 3.3 µM; with UACC-257 melanoma, 1.82 µM. The TGI is greater than 25.4 µM in the test on ACHN renal; 8.19 µM in the test on CAKI-1 renal; 7.22 µM in the test on EKVX NSCLC; 10.9 µM in the test on MDA-MB-231 breast; greater than 31.4 µM with NCI-H23 lung; 54 µM in the test with OVCAR-5 ovarian. Further, the TGI was greater than 100 µM with PC-3 prostate, 6.81 µM in the test on RPMI-8226 leukemia, greater than 100 µM in the test on SW-620 colon and 4.62 µM with UACC-257 melanoma.

`CC(=O)OCC1OC([S-])C(OC(C)=O)C(OC(C)=O)C1OC(C)=O.[Au+].c1ccc(CN2[CH-]N(Cc3ccccc3)C(c3ccccc3)=C2c2ccccc2)cc1`: the GI50 with ACHN renal was 1.87 µM and 0.674 µM; in the test on CAKI-1 renal it was 0.866 µM; in the test with EKVX NSCLC, 2.92 µM and 0.523 µM; with MDA-MB-231 breast it was 1.84 µM and 0.281 µM; with NCI-H23 lung it was 1.93 µM and 0.408 µM; in the test with OVCAR-5 ovarian, 3.35 µM and 0.783 µM. Also, the GI50 in the test with SW-620 colon is 2.02 µM and 0.779 µM; with UACC-257 melanoma it was 2.26 µM and 1 µM. Further, the TGI in the test on ACHN renal was 3.62 µM and 2.72 µM; in the test with CAKI-1 renal, 3.37 µM; in the test with EKVX NSCLC it was 9.53 µM and 4.27 µM; in the test with MDA-MB-231 breast, 3.62 µM and 0.951 µM; in the test on NCI-H23 lung, 4.86 µM and 3.11 µM; with OVCAR-5 ovarian, 11.9 µM and 3.1 µM. Also, the TGI is 4.73 µM and 1.17 µM in the test on PC-3 prostate; 5.99 µM and 1.93 µM in the test with RPMI-8226 leukemia; 4.61 µM and 2.08 µM in the test with SW-620 colon; 9.22 µM and 3.12 µM in the test on UACC-257 melanoma.

On to `COC1/C=C/OC2(C)Oc3c(C)c(O)c4c(O)c(c(/C=N/N(c5ccccc5)c5ccccc5)c(O)c4c3C2=O)NC(=O)C(C)=C/C=C/C(C)C(O)C(C)C(O)C(C)C(OC(C)=O)C1C` (configuration not stated), for which the GI50 in the test with ACHN renal is 1.75 µM; in the test on CAKI-1 renal, 2.42 µM; with EKVX NSCLC it was 2.78 µM; in the test with MDA-MB-231 breast it was 1.38 µM; with NCI-H23 lung it was 1.96 µM; in the test with OVCAR-5 ovarian it was 2.07 µM. The GI50 in the test with PC-3 prostate is 1.27 µM; in the test on RPMI-8226 leukemia it was 1.16 µM; in the test with SW-620 colon it was 1.05 µM; in the test with UACC-257 melanoma it was 1.48 µM. Further, the TGI with ACHN renal was 7.13 µM; in the test with CAKI-1 renal it was 11.2 µM; with EKVX NSCLC, 11.3 µM; in the test with MDA-MB-231 breast, 4.14 µM; in the test with NCI-H23 lung, 8.98 µM; in the test on OVCAR-5 ovarian, 10.9 µM. Also, the TGI in the test with PC-3 prostate amounted to 4.95 µM; in the test with RPMI-8226 leukemia it was 4.42 µM; with SW-620 colon, 2.6 µM; with UACC-257 melanoma it was 5.44 µM.

Take `CCCCCCCCCCCCCC(=O)NO`: the TGI in the test with ACHN renal is 39.3 µM; with CAKI-1 renal it was 52.4 µM; in the test with EKVX NSCLC, 54.1 µM; in the test with MDA-MB-231 breast, greater than 100 µM; with NCI-H23 lung, 31.1 µM; in the test on OVCAR-5 ovarian it was greater than 74.1 µM. Besides, the TGI in the test with PC-3 prostate is 28.6 µM; in the test with RPMI-8226 leukemia, greater than 100 µM; in the test on SW-620 colon, 82.6 µM; in the test on UACC-257 melanoma, 77.3 µM.

Take `COc1cc(C(=O)c2cnc(-c3ccc4cc[nH]c4c3)[nH]2)cc(OC)c1OC`: the GI50 is 0.0973 µM in the test with ACHN renal; 0.0503 µM in the test on CAKI-1 renal; 0.0721 µM with EKVX NSCLC; 0.0609 µM in the test with MDA-MB-231 breast; 0.0575 µM in the test on NCI-H23 lung; 0.225 µM in the test with OVCAR-5 ovarian. For the same compound, the GI50 with PC-3 prostate is 0.0286 µM; with RPMI-8226 leukemia it was 0.0417 µM; in the test on SW-620 colon it was 0.0398 µM; with UACC-257 melanoma, 2.03 µM. Further, the TGI in the test on ACHN renal is 6.11 µM; in the test with CAKI-1 renal it was 4.2 µM; with EKVX NSCLC, 19.7 µM; in the test on MDA-MB-231 breast it was 1.44 µM; in the test on NCI-H23 lung, 21 µM; in the test with OVCAR-5 ovarian it was 23.9 µM. Also, the TGI with PC-3 prostate came to 15.1 µM; in the test with RPMI-8226 leukemia it was 2.77 µM; with SW-620 colon, 21.7 µM; in the test on UACC-257 melanoma, 17.4 µM.

Turning to `O=C1/C=C/[C@@H](O)[C@@H]2C[C@@H](O)C[C@H]2/C=C/CCC[C@H](CCc2ccc(NC(=S)Nc3ccc4c(c3)C(=O)OC43c4ccc(O)cc4Oc4cc(O)ccc43)cc2)O1`, the GI50 with ACHN renal was 0.803 µM; in the test with CAKI-1 renal, 1.65 µM; in the test on EKVX NSCLC, 0.409 µM; in the test on MDA-MB-231 breast, 0.21 µM; in the test with NCI-H23 lung, 0.439 µM; in the test with OVCAR-5 ovarian, 0.698 µM. Besides, the GI50 in the test on PC-3 prostate was 0.516 µM; in the test on RPMI-8226 leukemia, 0.339 µM; in the test on SW-620 colon, 0.337 µM; with UACC-257 melanoma, 0.547 µM. Also, the TGI was greater than 100 µM in the test on ACHN renal; greater than 100 µM in the test with CAKI-1 renal; greater than 100 µM with EKVX NSCLC; 0.402 µM in the test with MDA-MB-231 breast; greater than 74 µM in the test on NCI-H23 lung; greater than 100 µM with OVCAR-5 ovarian. The TGI with PC-3 prostate was greater than 100 µM; in the test on RPMI-8226 leukemia it was 2.39 µM; in the test with UACC-257 melanoma it was greater than 75.5 µM.

On to `CN(C)c1ccc(/C=N/n2c(CCCCc3n[nH]c(=S)n3/N=C/c3ccc(N(C)C)cc3)n[nH]c2=S)cc1`, for which the GI50 is greater than 100 µM with ACHN renal; greater than 100 µM with CAKI-1 renal; greater than 100 µM with EKVX NSCLC; 41.3 µM in the test with MDA-MB-231 breast; greater than 100 µM in the test on NCI-H23 lung; greater than 100 µM in the test with OVCAR-5 ovarian. Further, the GI50 in the test with PC-3 prostate, in the test with RPMI-8226 leukemia, in the test on SW-620 colon and with UACC-257 melanoma was greater than 100 µM each time. For the same compound, the TGI in the test with ACHN renal, in the test on CAKI-1 renal, in the test on EKVX NSCLC, with MDA-MB-231 breast, in the test with NCI-H23 lung and in the test on OVCAR-5 ovarian was greater than 100 µM each time. In addition, the TGI in the test on PC-3 prostate, in the test with RPMI-8226 leukemia, with SW-620 colon and with UACC-257 melanoma was greater than 100 µM throughout.

Regarding `C#Cc1cccc(Nc2ncnc3ccc(-c4cnc(N)nc4)cc23)c1`, the GI50 in the test on ACHN renal is 0.542 µM; with CAKI-1 renal, 1.09 µM; in the test on EKVX NSCLC, 0.242 µM; with MDA-MB-231 breast, 2.05 µM; with NCI-H23 lung, 3.67 µM; in the test with OVCAR-5 ovarian it was 1.33 µM. Further, the GI50 in the test with PC-3 prostate was 1.62 µM; in the test with RPMI-8226 leukemia it was 1.43 µM; in the test with SW-620 colon, 4.23 µM; in the test on UACC-257 melanoma, 6.57 µM. For the same compound, the TGI in the test on ACHN renal is 10.3 µM; with CAKI-1 renal, 4.93 µM; in the test with EKVX NSCLC it was 2.93 µM; in the test with MDA-MB-231 breast, 11 µM; in the test on NCI-H23 lung, greater than 100 µM; in the test on OVCAR-5 ovarian, 14.6 µM. For the same compound, the TGI with PC-3 prostate was found to be 11.3 µM; in the test on RPMI-8226 leukemia, 5.41 µM; with SW-620 colon it was 17.7 µM; with UACC-257 melanoma it was 46 µM.

Values taken from PubChem BioAssay (NCI).
